Assay results: patent US4160829A, “Antibacterial 1,2,4-oxadiazolylacetamido cephalosporins” (Gist-Brocades N.V., priority 1972, dated 1979)

Key:
[1] = tested on: Bac.Subt.ATCC 6633; assay: agar serial dilution test; assay type: cell-based, Bacillus subtilis; conditions: Bacillus subtilis, ATCC6633, 24 h, agar serial dilution, 24 hours, 37° C.; read-out: minimal inhibitory concentration (MIC)
[2] = tested on: Proteus mirabilis A 1200; assay: protection test; assay type: in vivo; conditions: s.c.
[3] = tested on: Prot.rettg. A 821; assay: agar serial dilution test; assay type: cell-based, Proteus rettgeri; conditions: Providencia rettgeri, 24 h, agar serial dilution, 24 hours, 37° C.; read-out: minimal inhibitory concentration (MIC)
[4] = tested on: Pseud.aerug. H 10; assay: agar serial dilution test; assay type: cell-based; conditions: agar serial dilution, 24 hours, 37° C.; read-out: minimal inhibitory concentration (MIC)
[5] = tested on: Staph.aureus A 2000; assay: agar serial dilution test; assay type: cell-based, Staphylococcus aureus; conditions: Staphylococcus aureus, A2000, 24 h, agar serial dilution, 24 hours, 37° C.; read-out: minimal inhibitory concentration (MIC)
[6] = tested on: Prot.mirab. A 1200; assay: agar serial dilution test; assay type: cell-based, Proteus mirabilis; conditions: Proteus mirabilis, 24 h, agar serial dilution, 24 hours, 37° C.; read-out: minimal inhibitory concentration (MIC)
[7] = tested on: Esch.coli U 20; assay: agar serial dilution test; assay type: cell-based, Escherichia coli; conditions: Escherichia coli, U20; agar serial dilution, 24 hours, 37° C.; read-out: minimal inhibitory concentration (MIC)
[8] = tested on: Bruc. Suis A 2126; assay: agar serial dilution test; assay type: cell-based; conditions: Brucella suis, 24 h, read-out: minimal inhibitory concentration (MIC)
[9] = tested on: Prot.mirab. L 93; assay: agar serial dilution test; assay type: cell-based, Proteus mirabilis; conditions: Proteus mirabilis; agar serial dilution, 24 hours, 37° C.; read-out: minimal inhibitory concentration (MIC)
[10] = tested on: Sarc. lutea ATCC 9341; assay: agar serial dilution test; assay type: cell-based; conditions: Micrococcus luteus, ATCC9341, 24 hours, 37° C., read-out: minimal inhibitory concentration (MIC)

## Cc1noc(CC(=O)N[C@@H]2C(=O)N3C(C(=O)O)=C(CSc4nnnn4C)CS[C@H]23)n1 [Compound G, sodium-7[(3-methyl-1,2,4-oxadiazol-5-yl)-acetamido] 3 [1-methyl-tetrazol-5-yl-mercaptomethyl] 3-cephem-4-carboxylate]
[1]
  MIC: 0.25 µg/mL
[2]; Proteus mirabilis, A1200, sc, protection test, read-out: ED50
  ED50: 8.7 mg/kg
[2]; reference Cefalotin
  Potency ratio: 1,4
[3]
  MIC: 0.25 µg/mL
[4]
  MIC: 100 µg/mL
[5]
  MIC: 0.75 µg/mL
[6]
  MIC: 25 µg/mL
[7]
  MIC: 0.75 µg/mL
[8]
  MIC: 1 µg/mL
[9]
  MIC: 3 µg/mL
[10]
  MIC: 0.5 µg/mL
